What was measured:
HCT116 xenograft tumors = assay: HCT116 xenograft in NSG mice, peritumoral treatment; type: in vivo, mouse; conditions: HCT116 s.c. in NSG mice, 1 mg/kg peritumoral every day, n = 4
Protocol: Mouse care and experimental procedures were performed under pathogen-free conditions in accordance with established institutional guidance and approved IACUC protocols from Research Animal Care Committee of the City of Hope. For s.c. tumor challenge, 5 × 10^6 HCT116 cells were injected into NSG mice from The Jackson Laboratory or animal resource core facility at the City of Hope. After tumors reached an average size of 80~100 mm^3, mice were locally or intravenously treated with 1 mg/kg of PO- or PS-peptides (Anaspec) every day or every other day. Control animals were treated with the equal volume of HBSS (Invitrogen, Thermo Fisher Scientific). Tumor growth was measured by a digital caliper every other day. […] Lungs were then analyzed for immune responses by immunostaining followed by confocal imaging. […] Tumor growth was measured by a digital caliper every other day. […]
(B) PS-acet.-STAT3 peptide downregulates STAT3 phosphorylation, assessed by Western blotting using tumor homogenates prepared from tumors shown in A.
(C) mRNA levels for CASP9, BIRC5 and BCL2L1 in the same tumor tissues described above were assessed by qRT-PCR. […]
(D) Treatments with PS-acet.-STAT3 peptide induced cell death, indicated by H&E staining (upper panel). […] Right panels represent quantification of Ki-67 protein levels and mean of vessel diameter (data include 5 fields of view per group). […]

[1] = Systemic toxicity in mice; type: in vivo; conditions: 1 mg/kg i.v. every other day for 3 weeks, n = 3
Protocol: To evaluate the potential toxicity associated with systemic treatments of PS-peptide, PS-acet.-STAT3 peptide, PS-oligo, naive peptide, and PO- or PS-acet.-STAT3 peptide were given to the mice at 1 mg/kg through i.v. every other day for 3 weeks.
Supplemental Figure 10 (related to Figure 3). The systemic toxicity of PS-acet.-peptide.
The bodyweight (A), blood count (B) and organ morphology (H&E staining; spleen, kidney and liver) (C) of the mice (n=3) treated with HBSS (1), PS-oligo (2), naïve peptide (3), PO-peptide (4) or PS-peptide (5) every other day at 1 mg/kg (per treatment) for 3 weeks.
Individual value of each mouse is shown as a dot on the graph. The red lines on each graph in (B) indicate the normal ranges. Blood count was done by a veterinary hematology analyzer. The images shown in (C) are the represented H&E section from three mice (n=3). Enlarged view are shown below as indicated. Scale bar, 50 µm.
Aftabizadeh and Li et al., Figure S10

B16 melanoma = B16 melanoma lung metastasis in C57BL/6 mice; type: in vivo, mouse; conditions: B16 i.v. in C57BL/6 mice, 1 mg/kg i.v. every other day, gp100 staining, n = 5
From the text: Figure 7 PS-acet.-STAT3 peptide treatment efficiently reduces mouse melanoma lung metastasis. (A) Systemic PS-acet.-STAT3 peptide treatment reduces B16 lung nodules in syngeneic mouse model compared with control treatments. The B16 lung nodules in mice treated with the indicated STAT3 peptides and vehicle (n = 5) were visualized by IF staining of gp100 and quantified by confocal microscopy and Zen software. The levels of phosphorylation of STAT3 (p-STAT3), CD69, and Foxp3 in the tumor or tumor-infiltrating CD8^+ T or CD4^+ T cells were detected by IF staining followed by confocal microscopy in B16 metastatic lung nodules upon treatments with vehicle, PO- or PS-acet.-STAT3, PS-STAT3-K685R, or PS-unacet.-STAT3 peptides as indicated. Images are representative of 5 lungs per experimental group. Scale bars: 20 μm (CD69, CD8, CD4, p-STAT3, and Foxp3) and 100 μm (gp100). White arrows indicate the immune cells. Insets: original magnification, ×40. (B) The graphs show the quantification of gp100 and p-STAT3 expression levels (MFI) or the cell population (%) of CD69^+ in CD8^+ or p-STAT3^+ in CD4^+ or Foxp3^+ in CD4^+ (data represent 5 lungs per group, n = 5). SD is shown. One-way ANOVA; ****P < 0.001.
Mouse care and experimental procedures were performed under pathogen-free conditions in accordance with established institutional guidance and approved IACUC protocols from Research Animal Care Committee of the City of Hope. For s.c. tumor challenge, 5 × 10^6 HCT116 cells were injected into NSG mice from The Jackson Laboratory or animal resource core facility at the City of Hope. After tumors reached an average size of 80~100 mm^3, mice were locally or intravenously treated with 1 mg/kg of PO- or PS-peptides (Anaspec) every day or every other day. Control animals were treated with the equal volume of HBSS (Invitrogen, Thermo Fisher Scientific). Tumor growth was measured by a digital caliper every other day. To study the effects of the modified peptides at protein and gene levels, mice were euthanized 4–6 weeks after tumor injection. B16 melanoma lung metastasis was performed by injecting 0.5 × 10^6 B16 cells into bloodstream of C57BL/6 mice (The Jackson Laboratory). One day after tumor challenge, mice were treated intravenously (retro-orbitally) with 1 mg/kg of PO- or PS-acet.-STAT3, PS-unacet.-STAT3, or PS-STAT3-K685R peptides every other day until the endpoint as indicated. Control mice were treated with HBSS. Lungs were excised from the mice, and B16 nodules were visualized by gp100 staining. Lungs were then analyzed for immune responses by immunostaining followed by confocal imaging. For mouse PDAC model, 5 × 10^6 KPC mouse cells were mixed with Matrigel and subcutaneously injected into C57BL/6 mice (The Jackson Laboratory). After tumors reached an average size of 80~100 mm^3, mice were intravenously treated with 1 mg/kg of PO- or PS-Gp130, PS-oligo, PS-SC-MYC, PS-MYC. or combined PS-Gp130/PS-MYC (0.5 mg/kg, 0.5 mg/kg) (Anaspec) every other day for 18 days. Control animals were treated with the equal volume of HBSS (Invitrogen, Thermo Fisher Scientific). Tumor growth was measured by a digital caliper every other day. To study the effects of the modified peptides at protein and gene levels, mice were euthanized at the endpoint as indicated.

pY705-STAT3 = assay: Western blotting of p-STAT3 in HCT116 cells; type: cell-based, human; conditions: HCT116, 1 µM, 48 hours
From the text: Figure 3 PS-acet.-STAT3 peptide inhibits STAT3 activity and downregulates the expression of STAT3 targets. (A) Downregulation of STAT3 activity and its downstream target proteins shown in human HCT116 colorectal cancer cells by Western blotting (data represent 1 of the 3 experiments, n = 3). PO-acet.-STAT3 and PS-STAT3-K685R peptides were used in parallel as controls. (B) STAT3 inhibition regulated the expression of proliferation and apoptotic genes, assessed by real-time quantitative PCR. Data present mean ± SD, n = 3 independent experiments, 1-way ANOVA; ***P < 0.005; **P < 0.01. […] For p53 promoter assay, data represent 3 replicates in 3 independent experiments (n = 9). For cell proliferation assay, data represent 3 independent experiments. SD is shown (n = 3). One-way ANOVA; ***P < 0.005; **P < 0.01.
Whole cell lysates or tissue homogenates were prepared by using RIPA lysis buffer (50 mM Tris at pH 7.4, 150 mM NaCl, 1 mM EDTA, 0.5% NP-40, 1 mM NaF, 15% glycerol, and 20 mM β-glycerophosphate). A protease inhibitor cocktail (Mini Protease Inhibitor Cocktail; Roche) and a tyrosine phosphatase inhibitor, sodium orthovanadate (Na3VO4, 1 mM), were added freshly to the lysis buffer. Protein amounts were determined by BCA using a Thermo Fisher Scientific kit. Normalized protein amounts were subjected to an SDS-PAGE and transferred onto a nitrocellulose membrane for Western blotting. […] The protein levels for STAT1 (sc-346, E-23), STAT3 (sc-482, C-20), STAT5 (sc-74442, A-9), Crm1 (exportin 1) (sc-5595, H-300), CAS (exportin 2) (sc-271537, H-2), exportin 5 (sc-66885, H-300), and exportin 7 (sc-98639, H-82) were determined using antibodies from Santa Cruz Biotechnology Inc. Anti–exportin 3 (exportin T, 630622, LOS1 05-1525), anti–exportin 4 (3499-1), and anti–exportin 6 (11408-1-AP) were from MilliporeSigma, Epitomics, and Proteintech, respectively. […]
(§1) Supplemental Figure 4 (related to Figure 1). […] Phosphorylation of STAT3 at Y705 and STAT5 at Y694 was detected by Western blotting after 48 hours treatment of PS-acet.-STAT3 peptide (1 µM) or napabucasin (1 µM) in HCT116 cells. […]

pY694-STAT5 = assay: Western blotting of p-STAT5 in HCT116 cells; type: cell-based, human; conditions: HCT116, 1 µM, 48 hours
Protocol: Whole cell lysates or tissue homogenates were prepared by using RIPA lysis buffer (50 mM Tris at pH 7.4, 150 mM NaCl, 1 mM EDTA, 0.5% NP-40, 1 mM NaF, 15% glycerol, and 20 mM β-glycerophosphate). A protease inhibitor cocktail (Mini Protease Inhibitor Cocktail; Roche) and a tyrosine phosphatase inhibitor, sodium orthovanadate (Na3VO4, 1 mM), were added freshly to the lysis buffer. Protein amounts were determined by BCA using a Thermo Fisher Scientific kit. Normalized protein amounts were subjected to an SDS-PAGE and transferred onto a nitrocellulose membrane for Western blotting. Proteins were visualized with a chemiluminescent detection kit (Pierce, Thermo Fisher Scientific). The protein levels for STAT1 (sc-346, E-23), STAT3 (sc-482, C-20), STAT5 (sc-74442, A-9), Crm1 (exportin 1) (sc-5595, H-300), CAS (exportin 2) (sc-271537, H-2), exportin 5 (sc-66885, H-300), and exportin 7 (sc-98639, H-82) were determined using antibodies from Santa Cruz Biotechnology Inc. Anti–exportin 3 (exportin T, 630622, LOS1 05-1525), anti–exportin 4 (3499-1), and anti–exportin 6 (11408-1-AP) were from MilliporeSigma, Epitomics, and Proteintech, respectively. […]
as §1

| Compound | tumor growth (HCT116 xenograft tumors) | behavior, body weight, blood counts [1] | morphology and cell death in liver, spleen, kidney tissues (H&E) [1] | metastatic lung nodules (B16 melanoma) | phosphorylated STAT3 (p-STAT3, Y705) level (pY705-STAT3) | p-STAT5 (Y694) level (pY694-STAT5) |
| --- | --- | --- | --- | --- | --- | --- |
| PDIPKEEAFGK685(Ac)YCRPESQEHPC-linker-TCCATGAGCTTCCTGATGCT [PO-acet.-STAT3 peptide] | not | No behavior changes, body weight loss, or abnormal blood counts | no significant morphology change or cell death | few antitumor effects | – | – |
| CC(=O)c1cc2c(o1)C(=O)c1ccccc1C2=O [napabucasin, reference compound] | – | – | – | – | inhibited | inhibited |

— paper PMC7934871 (JCI Insight, 2021)
